Active and inactive are the calls of the source. No cut-off for these calls is given here.
Tests used:
[1] = target: Phosphatidylinositol 4,5-bisphosphate 3-kinase catalytic subunit beta isoform (Homo sapiens, UniProt P42338); assay: Inhibition of PI3Kbeta (unknown origin) using PIP2 as substrate incubated for 1 hr in presence of ATP by ADP-Glo assay
[2] = target: Phosphatidylinositol 4,5-bisphosphate 3-kinase catalytic subunit alpha isoform (Homo sapiens, UniProt P42336); assay: Inhibition of PI3Kalpha (unknown origin) using PIP2 as substrate incubated for 1 hr in presence of ATP by ADP-Glo assay
HepG2 [3] = assay: cells; settings: Homo sapiens, HepG2, 72 h, read-out: INH
Bel-7402 [4] = assay: cells; settings: Homo sapiens, Bel-7402, 72 h, read-out: INH
HepG2 [5] = assay: cells; settings: Homo sapiens, HepG2, 72 h
Description: Antiproliferative activity against human HepG2 cells assessed as inhibition of cell growth incubated for 72 hrs by SRB assay

[6] = target: Phosphatidylinositol 4,5-bisphosphate 3-kinase catalytic subunit gamma isoform (Homo sapiens, UniProt P48736); assay: Inhibition of PI3Kgamma (unknown origin) using PIP2 as substrate incubated for 1 hr in presence of ATP by ADP-Glo assay
Bel-7402 [7] = assay: Antiproliferative activity against human Bel-7402 cells assessed as inhibition of cell growth incubated for 72 hrs by SRB assay; format: functional, cell-based; settings: Bel-7402, 72 h
Hep 3B2 [8] = assay: cells; settings: Homo sapiens, Hep3B, 72 h, read-out: INH
Hep 3B2 [9] = assay: Antiproliferative activity against human Hep3B cells assessed as inhibition of cell growth incubated for 72 hrs by SRB assay; format: functional, cell-based
[10] = target: T1, Phosphatidylinositol 4,5-bisphosphate 3-kinase catalytic subunit delta isoform (Homo sapiens, UniProt O00329); assay: Inhibition of PI3Kdelta (unknown origin) using PIP2 as substrate incubated for 1 hr in presence of ATP by ADP-Glo assay
T1 sequence (O00329 whole entry): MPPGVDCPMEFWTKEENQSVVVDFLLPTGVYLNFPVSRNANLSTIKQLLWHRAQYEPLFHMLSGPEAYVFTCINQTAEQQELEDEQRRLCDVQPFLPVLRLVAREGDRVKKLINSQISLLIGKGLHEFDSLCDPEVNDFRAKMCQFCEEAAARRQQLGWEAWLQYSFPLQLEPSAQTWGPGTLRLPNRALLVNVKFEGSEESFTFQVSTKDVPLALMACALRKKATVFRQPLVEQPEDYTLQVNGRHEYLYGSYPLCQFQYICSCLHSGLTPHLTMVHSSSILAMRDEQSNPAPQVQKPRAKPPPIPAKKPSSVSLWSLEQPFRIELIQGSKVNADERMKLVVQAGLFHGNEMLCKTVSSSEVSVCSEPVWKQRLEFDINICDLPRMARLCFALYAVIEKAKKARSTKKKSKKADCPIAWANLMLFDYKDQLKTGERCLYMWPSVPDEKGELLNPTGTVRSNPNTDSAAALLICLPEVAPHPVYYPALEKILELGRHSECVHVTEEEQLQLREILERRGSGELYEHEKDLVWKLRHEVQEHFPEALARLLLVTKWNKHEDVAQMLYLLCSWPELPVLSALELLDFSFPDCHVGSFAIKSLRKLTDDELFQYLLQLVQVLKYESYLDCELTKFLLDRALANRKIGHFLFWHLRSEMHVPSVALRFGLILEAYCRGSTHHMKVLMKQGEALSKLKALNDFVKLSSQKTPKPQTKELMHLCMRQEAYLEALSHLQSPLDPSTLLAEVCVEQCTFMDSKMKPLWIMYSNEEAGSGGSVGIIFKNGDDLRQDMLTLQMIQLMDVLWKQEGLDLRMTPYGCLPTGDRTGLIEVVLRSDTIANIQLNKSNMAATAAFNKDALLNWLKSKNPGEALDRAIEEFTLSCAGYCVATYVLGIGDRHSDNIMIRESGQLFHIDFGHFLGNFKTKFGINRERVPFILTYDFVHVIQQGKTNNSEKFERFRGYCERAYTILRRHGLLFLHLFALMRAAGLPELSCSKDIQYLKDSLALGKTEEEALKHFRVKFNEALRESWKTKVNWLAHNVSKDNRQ

Bel-7402 [11] = assay: Induction of apoptosis in human Bel-7402 cells assessed as increase in apoptotic cells at 50 uM for 24 hrs by TUNEL staining method; format: functional, cell-based
Bel-7402 [12] = assay: animal or person; settings: Mus musculus, Bel-7402, po, 336 h, read-out: INH
Bel-7402 [13] = assay: Induction of apoptosis in human Bel-7402 cells xenografted in Balb/c (nu/nu) mouse assessed as decrease in phosphorylation of Akt at serine 473 residue at 20 to 40 mg/kg, po daily after 14 days by western blot analysis; format: functional, organism-based; settings: dose 20-40 mg/kg, time 14.0 day
HepG2 [14] = assay: Induction of apoptosis in human HepG2 cells assessed as increase in expression of cleaved caspase-3 at 1.5625 to 50 uM incubated for 24 hrs by Western blotting analysis; format: functional, cell-based; settings: dose 1.5625-50 µM, DDE = dose-dependent effect
HepG2 [15] = assay: Induction of apoptosis in human HepG2 cells assessed as decrease in EGf dependent Akt phosphorylation at serine 473 residue at 0.3 to 10 uM measured after 24 hrs by western blotting analysis; format: functional, cell-based; settings: dose 0.3-10 µM, DDE = dose-dependent effect
HepG2 [16] = assay: Induction of apoptosis in human HepG2 cells assessed as increase in expression of cleaved PARP at 1.5625 to 50 uM incubated for 24 hrs by Western blotting analysis; format: functional, cell-based; settings: dose 1.5625-50 µM, DDE = dose-dependent effect
Bel-7402 [17] = assay: Induction of apoptosis in human Bel-7402 cells assessed as decrease in EGf dependent Akt phosphorylation at serine 473 residue at 0.3 to 10 uM measured after 24 hrs by western blotting analysis; format: functional, cell-based; settings: dose 0.3-10 µM, DDE = dose-dependent effect
Bel-7402 [18] = assay: Induction of apoptosis in human Bel-7402 cells assessed as increase in apoptotic cells at 12.5 to 50 uM for 24 hrs by TUNEL staining method; format: functional, cell-based; settings: dose 12.5-50 µM
Bel-7402 [19] = assay: Induction of apoptosis in human Bel-7402 cells assessed as increase in expression of cleaved caspase-3 at 1.5625 to 50 uM incubated for 24 hrs by Western blotting analysis; format: functional, cell-based; settings: dose 1.5625-50 µM, DDE = dose-dependent effect
Bel-7402 [20] = assay: Induction of apoptosis in human Bel-7402 cells xenografted in Balb/c (nu/nu) mouse assessed as increase in apoptotic cells at 20 to 40 mg/kg, po daily after 14 days by DAPI staining based assay; format: functional, organism-based; settings: dose 20-40 mg/kg, time 14.0 day
[21] = Toxicity in Balb/c (nu/nu) mouse xenografted with human Bel-7402 cells assessed as change in body weight at 20 to 40 mg/kg, po daily after 14 days; format: organism-based; settings: in vivo, 336 h, dose 20-40 mg/kg, time 14 day
Bel-7402 [22] = assay: Induction of apoptosis in human Bel-7402 cells xenografted in Balb/c (nu/nu) mouse assessed as decrease in cell proliferation at 20 to 40 mg/kg, po daily after 14 days by Ki-67 staining based immunohistochemical analysis; format: functional, organism-based; settings: dose 20-40 mg/kg, time 14.0 day
Bel-7402 [23] = assay: Induction of apoptosis in human Bel-7402 cells assessed as decrease in EGf dependent Akt phosphorylation at threonine 308 residue at 0.3 to 10 uM measured after 24 hrs by western blotting analysis; format: functional, cell-based; settings: dose 0.3-10 µM, DDE = dose-dependent effect
Bel-7402 [24] = assay: Induction of apoptosis in human Bel-7402 cells xenografted in Balb/c (nu/nu) mouse assessed as increase in expression of cleaved caspase-3 at 20 to 40 mg/kg, po daily after 14 days by western blot analysis; format: functional, organism-based; settings: dose 20-40 mg/kg, time 14.0 day
Bel-7402 [25] = assay: Induction of apoptosis in human Bel-7402 cells assessed as increase in expression of cleaved PARP at 1.5625 to 50 uM incubated for 24 hrs by Western blotting analysis; format: functional, cell-based; settings: dose 1.5625-50 µM, DDE = dose-dependent effect
Bel-7402 [26] = assay: Induction of apoptosis in human Bel-7402 cells xenografted in Balb/c (nu/nu) mouse assessed as increase in expression of cleaved PARP at 20 to 40 mg/kg, po daily after 14 days by western blot analysis; format: functional, organism-based; settings: dose 20-40 mg/kg, time 14.0 day
HepG2 [27] = assay: Induction of apoptosis in human HepG2 cells assessed as decrease in EGf dependent Akt phosphorylation at threonine 308 residue at 0.3 to 10 uM measured after 24 hrs by western blotting analysis; format: functional, cell-based; settings: dose 0.3-10 µM, DDE = dose-dependent effect
Bel-7402 [28] = assay: Antitumor activity against human Bel-7402 cells xenografted in Balb/c (nu/nu) mouse assessed as relative tumor volume at 30 mg/kg, po qd after 14 days (Rvb=25.69+/-2.73); format: functional; settings: time 14 day
Bel-7402 [29] = assay: Antitumor activity against human Bel-7402 cells xenografted in Balb/c (nu/nu) mouse assessed as tumor weight at 30 mg/kg, po qd after 14 days (Rvb=0.65 +/- 0.06 g); format: functional; settings: time 14 day
Bel-7402 [30] = assay: Antitumor activity against human Bel-7402 cells xenografted in BAlb/c (nu/nu) mouse assessed as T/C ratio at 30 mg/kg, po daily measured after 14 days; format: functional; settings: time 14 day
Bel-7402 [31] = assay: Antitumor activity against human Bel-7402 cells xenografted in BAlb/c (nu/nu) mouse assessed as inhibition rate at 30 mg/kg, po daily measured after 14 days; format: functional; settings: Bel-7402, 336 h, time 14 day

Phosphatidylinositol 4,5-bisphosphate 3-kinase catalytic subunit alpha isoform, sequence (P42336 whole entry, canonical isoform): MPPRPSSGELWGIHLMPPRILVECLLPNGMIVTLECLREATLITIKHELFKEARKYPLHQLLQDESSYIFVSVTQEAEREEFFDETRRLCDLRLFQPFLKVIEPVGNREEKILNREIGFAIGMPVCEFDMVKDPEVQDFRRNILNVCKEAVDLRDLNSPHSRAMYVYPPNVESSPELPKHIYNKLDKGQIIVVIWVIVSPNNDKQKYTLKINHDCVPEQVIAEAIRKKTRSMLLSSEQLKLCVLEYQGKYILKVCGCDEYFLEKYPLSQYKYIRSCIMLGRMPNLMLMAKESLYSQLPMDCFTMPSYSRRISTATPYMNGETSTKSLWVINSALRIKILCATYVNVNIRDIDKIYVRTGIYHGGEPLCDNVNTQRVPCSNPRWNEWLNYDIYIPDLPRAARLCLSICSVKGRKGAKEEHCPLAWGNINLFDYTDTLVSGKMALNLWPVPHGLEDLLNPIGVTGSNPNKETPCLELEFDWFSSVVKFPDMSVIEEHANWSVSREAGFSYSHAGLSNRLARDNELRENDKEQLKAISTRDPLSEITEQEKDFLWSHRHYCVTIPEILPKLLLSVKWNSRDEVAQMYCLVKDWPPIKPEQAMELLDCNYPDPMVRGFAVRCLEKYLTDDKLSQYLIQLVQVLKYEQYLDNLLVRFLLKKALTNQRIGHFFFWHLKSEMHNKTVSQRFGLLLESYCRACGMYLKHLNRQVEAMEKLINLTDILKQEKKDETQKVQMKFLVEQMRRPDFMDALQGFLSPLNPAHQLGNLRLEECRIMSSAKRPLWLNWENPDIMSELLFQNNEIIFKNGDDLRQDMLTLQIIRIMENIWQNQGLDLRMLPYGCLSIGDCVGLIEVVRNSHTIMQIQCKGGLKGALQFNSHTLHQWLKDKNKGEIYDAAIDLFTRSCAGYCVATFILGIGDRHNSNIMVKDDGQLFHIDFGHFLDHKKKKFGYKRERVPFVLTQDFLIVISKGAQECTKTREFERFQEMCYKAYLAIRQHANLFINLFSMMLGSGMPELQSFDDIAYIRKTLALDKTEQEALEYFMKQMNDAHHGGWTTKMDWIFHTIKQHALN
Phosphatidylinositol 4,5-bisphosphate 3-kinase catalytic subunit gamma isoform, sequence (P48736 whole entry, canonical isoform): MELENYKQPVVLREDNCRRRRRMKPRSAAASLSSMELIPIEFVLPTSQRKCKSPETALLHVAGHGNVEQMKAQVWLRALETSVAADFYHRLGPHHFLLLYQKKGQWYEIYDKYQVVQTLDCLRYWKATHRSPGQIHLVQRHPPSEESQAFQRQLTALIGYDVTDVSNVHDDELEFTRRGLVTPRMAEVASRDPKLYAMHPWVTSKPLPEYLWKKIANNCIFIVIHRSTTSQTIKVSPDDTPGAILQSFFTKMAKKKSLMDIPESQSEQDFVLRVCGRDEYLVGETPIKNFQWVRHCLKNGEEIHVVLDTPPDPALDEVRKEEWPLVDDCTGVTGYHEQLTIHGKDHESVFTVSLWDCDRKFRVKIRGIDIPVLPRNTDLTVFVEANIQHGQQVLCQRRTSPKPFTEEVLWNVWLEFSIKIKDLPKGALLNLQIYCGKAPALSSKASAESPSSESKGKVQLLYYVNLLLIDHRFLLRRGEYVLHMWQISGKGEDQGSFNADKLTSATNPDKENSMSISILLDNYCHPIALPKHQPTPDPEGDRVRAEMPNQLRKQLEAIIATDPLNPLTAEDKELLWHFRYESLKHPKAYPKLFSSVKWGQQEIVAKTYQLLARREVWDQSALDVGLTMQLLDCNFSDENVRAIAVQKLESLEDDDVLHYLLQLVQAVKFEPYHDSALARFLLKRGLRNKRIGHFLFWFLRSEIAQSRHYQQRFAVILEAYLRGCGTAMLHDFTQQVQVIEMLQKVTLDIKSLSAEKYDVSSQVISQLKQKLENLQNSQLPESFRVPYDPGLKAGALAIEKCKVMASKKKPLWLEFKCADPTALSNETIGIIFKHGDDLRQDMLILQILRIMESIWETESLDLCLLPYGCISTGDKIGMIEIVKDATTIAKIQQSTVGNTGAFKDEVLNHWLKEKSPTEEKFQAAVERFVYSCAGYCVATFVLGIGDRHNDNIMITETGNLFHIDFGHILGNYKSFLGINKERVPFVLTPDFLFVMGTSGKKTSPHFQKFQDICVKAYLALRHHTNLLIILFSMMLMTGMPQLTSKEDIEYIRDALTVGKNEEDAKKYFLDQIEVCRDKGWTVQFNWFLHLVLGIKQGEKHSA
Phosphatidylinositol 4,5-bisphosphate 3-kinase catalytic subunit beta isoform, sequence (P42338 whole entry, canonical isoform): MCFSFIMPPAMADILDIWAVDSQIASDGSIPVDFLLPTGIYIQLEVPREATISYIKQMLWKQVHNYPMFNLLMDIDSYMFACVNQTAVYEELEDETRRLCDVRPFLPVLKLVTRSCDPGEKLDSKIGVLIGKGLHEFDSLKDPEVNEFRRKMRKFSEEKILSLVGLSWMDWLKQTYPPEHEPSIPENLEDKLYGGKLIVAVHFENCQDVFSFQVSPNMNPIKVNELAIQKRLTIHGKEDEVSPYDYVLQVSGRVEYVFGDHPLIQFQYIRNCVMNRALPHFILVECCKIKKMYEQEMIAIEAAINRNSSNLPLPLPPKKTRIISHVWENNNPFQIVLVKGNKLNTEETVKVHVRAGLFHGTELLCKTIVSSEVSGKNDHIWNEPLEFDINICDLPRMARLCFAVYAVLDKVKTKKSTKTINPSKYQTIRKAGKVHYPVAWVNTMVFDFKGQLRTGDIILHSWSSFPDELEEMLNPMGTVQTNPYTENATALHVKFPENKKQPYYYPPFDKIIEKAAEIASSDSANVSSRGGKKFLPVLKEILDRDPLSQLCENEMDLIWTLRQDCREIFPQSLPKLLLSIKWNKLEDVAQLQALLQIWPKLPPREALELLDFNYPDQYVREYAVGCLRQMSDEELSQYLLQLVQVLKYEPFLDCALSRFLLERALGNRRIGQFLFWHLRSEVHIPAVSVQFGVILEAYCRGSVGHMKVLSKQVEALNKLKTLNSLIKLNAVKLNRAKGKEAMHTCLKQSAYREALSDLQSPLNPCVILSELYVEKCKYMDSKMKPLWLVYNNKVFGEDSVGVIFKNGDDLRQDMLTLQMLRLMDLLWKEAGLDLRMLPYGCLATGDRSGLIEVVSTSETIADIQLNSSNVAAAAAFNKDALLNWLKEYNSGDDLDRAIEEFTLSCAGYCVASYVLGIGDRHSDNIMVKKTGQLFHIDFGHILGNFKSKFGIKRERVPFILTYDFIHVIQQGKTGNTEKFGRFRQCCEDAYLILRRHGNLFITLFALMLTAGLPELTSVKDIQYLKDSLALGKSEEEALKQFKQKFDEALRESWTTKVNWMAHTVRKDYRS

| SMILES | IC50 [1] | IC50 [2] | inhibition at 10 µM (HepG2 [3]) | inhibition at 10 µM (Bel-7402 [4]) | IC50 (HepG2 [5]) | IC50 [6] | IC50 (Bel-7402 [7]) | inhibition at 10 µM (Hep 3B2 [8]) | IC50 (Hep 3B2 [9]) | IC50 [10] | further results |
| --- | --- | --- | --- | --- | --- | --- | --- | --- | --- | --- | --- |
| CC[C@H](Nc1nc(N)nc(N)c1C#N)c1nn(-c2cccnc2)c2cc(Cl)ccc12 | 31 nM | 576 nM | 59% | 56% | 4770 nM | > 1000 nM | 5590 nM | 56% | 12100 nM | 1.2 nM |  |
| CC[C@H](Nc1ncnc2[nH]cnc12)c1nc2cccc(F)c2c(=O)n1-c1ccccc1 [IDELALISIB] |  |  | 20% | 9% | 89500 nM |  | 66200 nM | 21% | 77600 nM |  | Activity (Bel-7402 [11]): Active; inhibition in vivo at 40 mg/kg (Bel-7402 [12]): 44.6% |
| C[C@H](Nc1nc(N)nc(N)c1C#N)c1nn(-c2cccc(S(C)(=O)=O)c2)c2cc(Cl)ccc12 | 47 nM | > 1000 nM | 56% | 47% | 1880 nM | > 1000 nM | 4460 nM | 72% | 5110 nM | 2.1 nM |  |
| C[C@H](Nc1nc(N)nc2[nH]cnc12)c1nn(-c2cccnc2)c2cc(F)ccc12 |  |  | 11% | -5% | > 40000 nM |  | > 40000 nM | 14% | > 40000 nM | 39 nM |  |
| C[C@H](Nc1nc(N)nc(N)c1C#N)c1nn(-c2cccnc2)c2cc(Cl)ccc12 | 41 nM | > 1000 nM |  |  | 530 nM | 275 nM | 1360 nM |  | 1090 nM |  | Activity (Bel-7402 [13]): Active; Activity (HepG2 [14]): Dde; Activity (HepG2 [15]): Dde; Activity (HepG2 [16]): Dde; Activity (Bel-7402 [17]): Dde; Activity (Bel-7402 [18]): Active; Activity (Bel-7402 [19]): Dde; Activity (Bel-7402 [20]): Active; Activity [21]: Non-Toxic; Activity (Bel-7402 [22]): Active; Activity (Bel-7402 [23]): Dde; Activity (Bel-7402 [24]): Active; Activity (Bel-7402 [25]): Dde; Activity (Bel-7402 [26]): Active; Activity (HepG2 [27]): Dde |
| CNC(=O)c1cc(Oc2ccc(NC(=O)Nc3ccc(Cl)c(C(F)(F)F)c3)cc2)ccn1 [SORAFENIB] |  |  |  |  |  |  |  |  |  |  | Activity (Bel-7402 [28]): 11.6; Activity (Bel-7402 [29]): 0.32 g; T/C (Bel-7402 [30]): 45.13%; inhibition in vivo at 30 mg/kg (Bel-7402 [31]): 51.3% |
| C[C@H](Nc1ncnc2[nH]cnc12)c1nn(-c2ccncc2)c2cc(F)ccc12 |  |  | 47% | 16% | 23100 nM |  | > 40000 nM | 5% | 21400 nM | 52 nM |  |
| C[C@H](Nc1ncnc2[nH]cnc12)c1nn(-c2ccc(C#N)cc2)c2cc(F)ccc12 |  |  | 57% | 0% | 15100 nM |  | 31500 nM | 46% | 13500 nM | 220 nM |  |

Reference: ChEMBL document CHEMBL5154755, “Discovery of Novel Indazoles as Potent and Selective PI3Kδ Inhibitors with High Efficacy for Treatment of Hepatocellular Carcinoma” (J Med Chem, 2022)
